Test results from ChEMBL document CHEMBL5625248, “Identification of unique indolylcyanoethylenyl sulfonylanilines as novel structural scaffolds of potential antibacterial agents” (Eur J Med Chem, 2023).
≈ marks a conversion by molar mass, not a printed value.

Assays:
Format in all cases: functional
[1] = tested on: Klebsiella pneumoniae; assay: Antibacterial activity against Klebsiella pneumoniae assessed as inhibition of bacterial growth incubated for 18 hrs by two fold broth microdilution assay
[2] = tested on: Staphylococcus aureus; assay: Antibacterial activity against Staphylococcus aureus assessed as inhibition of bacterial growth incubated for 18 hrs by two fold broth microdilution assay
[3] = tested on: Staphylococcus aureus; assay: Antibacterial activity against Staphylococcus aureus ATCC 29213 assessed as inhibition of bacterial growth incubated for 18 hrs by two fold broth microdilution assay
[4] = tested on: Staphylococcus aureus; assay: Antibacterial activity against methicilin-resistant Staphylococcus aureus N315 assessed as inhibition of bacterial growth incubated for 18 hrs by two fold broth microdilution assay
[5] = tested on: Escherichia coli; assay: Antibacterial activity against Escherichia coli ATCC 25922 assessed as inhibition of bacterial growth incubated for 18 hrs by two fold broth microdilution assay
[6] = tested on: Enterococcus faecalis; assay: Antibacterial activity against Enterococcus faecalis assessed as inhibition of bacterial growth incubated for 18 hrs by two fold broth microdilution assay
[7] = tested on: Escherichia coli; assay: Antibacterial activity against Escherichia coli assessed as inhibition of bacterial growth incubated for 18 hrs by two fold broth microdilution assay
[8] = tested on: Pseudomonas aeruginosa; assay: Antibacterial activity against Pseudomonas aeruginosa assessed as inhibition of bacterial growth incubated for 18 hrs by two fold broth microdilution assay
[9] = tested on: Staphylococcus aureus; assay: Antibacterial activity against Staphylococcus aureus ATCC 25923 assessed as inhibition of bacterial growth incubated for 18 hrs by two fold broth microdilution assay
[10] = tested on: Pseudomonas aeruginosa; assay: Antibacterial activity against Pseudomonas aeruginosa ATCC 27853 assessed as inhibition of bacterial growth incubated for 18 hrs by two fold broth microdilution assay
[11] = tested on: Acinetobacter baumannii; assay: Antibacterial activity against Acinetobacter baumannii assessed as inhibition of bacterial growth incubated for 18 hrs by two fold broth microdilution assay

Compound | MIC [1] | MIC [2] | MIC [3] | MIC [4] | MIC [5] | MIC [6] | MIC [7] | MIC [8] | MIC [9] | MIC [10] | MIC [11]
Cc1cccc2c(/C=C(\C#N)S(=O)(=O)c3ccc(N)cc3)c[nH]c12 | 4 mg/L (≈ 11.9 µM) | 256 mg/L (≈ 759 µM) | 32 mg/L (≈ 94.8 µM) | 128 mg/L (≈ 379 µM) | 4 mg/L (≈ 11.9 µM) | 256 mg/L (≈ 759 µM) | 64 mg/L (≈ 190 µM) | 64 mg/L (≈ 190 µM) | 128 mg/L (≈ 379 µM) | 64 mg/L (≈ 190 µM) | 4 mg/L (≈ 11.9 µM)
CC(=O)Nc1ccc(S(=O)(=O)/C(C#N)=C/c2cn(Cc3cccc(F)c3)c3ccccc23)cc1 | 256 mg/L (≈ 541 µM) | 64 mg/L (≈ 135 µM) | 16 mg/L (≈ 33.8 µM) | 256 mg/L (≈ 541 µM) | 64 mg/L (≈ 135 µM) | 32 mg/L (≈ 67.6 µM) | 128 mg/L (≈ 270 µM) | 64 mg/L (≈ 135 µM) | 16 mg/L (≈ 33.8 µM) | 16 mg/L (≈ 33.8 µM) | 16 mg/L (≈ 33.8 µM)
N#C/C(=C\c1cn(Cc2cccc(F)c2)c2ccccc12)S(=O)(=O)c1ccc(N)cc1 | 4 mg/L (≈ 9.27 µM) | 128 mg/L (≈ 297 µM) | 64 mg/L (≈ 148 µM) | 256 mg/L (≈ 593 µM) | 64 mg/L (≈ 148 µM) | 128 mg/L (≈ 297 µM) | 256 mg/L (≈ 593 µM) | 64 mg/L (≈ 148 µM) | 64 mg/L (≈ 148 µM) | 64 mg/L (≈ 148 µM) | 8 mg/L (≈ 18.5 µM)
CCn1cc(/C=C(\C#N)S(=O)(=O)c2ccc(NC(C)=O)cc2)c2ccccc21 | 32 mg/L (≈ 81.3 µM) | 128 mg/L (≈ 325 µM) | 4 mg/L (≈ 10.2 µM) | 64 mg/L (≈ 163 µM) | 128 mg/L (≈ 325 µM) | 16 mg/L (≈ 40.7 µM) | 128 mg/L (≈ 325 µM) | 64 mg/L (≈ 163 µM) | 4 mg/L (≈ 10.2 µM) | 8 mg/L (≈ 20.3 µM) | 64 mg/L (≈ 163 µM)
C=CCn1cc(/C=C(\C#N)S(=O)(=O)c2ccc(NC(C)=O)cc2)c2ccccc21 | 8 mg/L (≈ 19.7 µM) | 256 mg/L (≈ 631 µM) | 256 mg/L (≈ 631 µM) | 8 mg/L (≈ 19.7 µM) | 1 mg/L (≈ 2.47 µM) | 8 mg/L (≈ 19.7 µM) | 8 mg/L (≈ 19.7 µM) | 8 mg/L (≈ 19.7 µM) | 4 mg/L (≈ 9.86 µM) | 16 mg/L (≈ 39.5 µM) | 2 mg/L (≈ 4.93 µM)
C#CCn1cc(/C=C(\C#N)S(=O)(=O)c2ccc(N)cc2)c2ccccc21 | 8 mg/L (≈ 22.1 µM) | 4 mg/L (≈ 11.1 µM) | 2 mg/L (≈ 5.53 µM) | 2 mg/L (≈ 5.53 µM) | 256 mg/L (≈ 708 µM) | 2 mg/L (≈ 5.53 µM) | 128 mg/L (≈ 354 µM) | 0.5 mg/L (≈ 1.38 µM) | 16 mg/L (≈ 44.3 µM) | 4 mg/L (≈ 11.1 µM) | 0.5 mg/L (≈ 1.38 µM)
CC(=O)Nc1ccc(S(=O)(=O)/C(C#N)=C/c2cn(Cc3ccccc3Cl)c3ccccc23)cc1 | 2 mg/L (≈ 4.08 µM) | 2 mg/L (≈ 4.08 µM) | 8 mg/L (≈ 16.3 µM) | 16 mg/L (≈ 32.7 µM) | 1 mg/L (≈ 2.04 µM) | 4 mg/L (≈ 8.16 µM) | 2 mg/L (≈ 4.08 µM) | 2 mg/L (≈ 4.08 µM) | 4 mg/L (≈ 8.16 µM) | 4 mg/L (≈ 8.16 µM) | 8 mg/L (≈ 16.3 µM)
CC(=O)Nc1ccc(S(=O)(=O)/C(C#N)=C/c2cn(Cc3ccccc3F)c3ccccc23)cc1 | 256 mg/L (≈ 541 µM) | 128 mg/L (≈ 270 µM) | 4 mg/L (≈ 8.45 µM) | 256 mg/L (≈ 541 µM) | 64 mg/L (≈ 135 µM) | 8 mg/L (≈ 16.9 µM) | 128 mg/L (≈ 270 µM) | 64 mg/L (≈ 135 µM) | 4 mg/L (≈ 8.45 µM) | 16 mg/L (≈ 33.8 µM) | 16 mg/L (≈ 33.8 µM)
N#C/C(=C\c1cn(CC2CC2)c2ccccc12)S(=O)(=O)c1ccc(N)cc1 | 16 mg/L (≈ 42.4 µM) | 32 mg/L (≈ 84.8 µM) | 32 mg/L (≈ 84.8 µM) | 128 mg/L (≈ 339 µM) | 16 mg/L (≈ 42.4 µM) | 128 mg/L (≈ 339 µM) | 256 mg/L (≈ 678 µM) | 64 mg/L (≈ 170 µM) | 64 mg/L (≈ 170 µM) | 16 mg/L (≈ 42.4 µM) | 64 mg/L (≈ 170 µM)
N#C/C(=C\c1c[nH]c2cccc(Cl)c12)S(=O)(=O)c1ccc(N)cc1 | 4 mg/L (≈ 11.2 µM) | 32 mg/L (≈ 89.4 µM) | 32 mg/L (≈ 89.4 µM) | 64 mg/L (≈ 179 µM) | 64 mg/L (≈ 179 µM) | 32 mg/L (≈ 89.4 µM) | 256 mg/L (≈ 715 µM) | 64 mg/L (≈ 179 µM) | 128 mg/L (≈ 358 µM) | 64 mg/L (≈ 179 µM) | 16 mg/L (≈ 44.7 µM)
CCCCCCCCn1cc(/C=C(\C#N)S(=O)(=O)c2ccc(N)cc2)c2ccccc21 | 4 mg/L (≈ 9.18 µM) | 128 mg/L (≈ 294 µM) | 16 mg/L (≈ 36.7 µM) | 256 mg/L (≈ 588 µM) | 64 mg/L (≈ 147 µM) | 32 mg/L (≈ 73.5 µM) | 128 mg/L (≈ 294 µM) | 64 mg/L (≈ 147 µM) | 32 mg/L (≈ 73.5 µM) | 32 mg/L (≈ 73.5 µM) | 32 mg/L (≈ 73.5 µM)
CC(=O)Nc1ccc(S(=O)(=O)/C(C#N)=C/c2c[nH]c3ccccc23)cc1 | 16 mg/L (≈ 43.8 µM) | 256 mg/L (≈ 701 µM) | 8 mg/L (≈ 21.9 µM) | 8 mg/L (≈ 21.9 µM) | 4 mg/L (≈ 10.9 µM) | 2 mg/L (≈ 5.47 µM) | 64 mg/L (≈ 175 µM) | 32 mg/L (≈ 87.6 µM) | 8 mg/L (≈ 21.9 µM) | 1 mg/L (≈ 2.74 µM) | 0.5 mg/L (≈ 1.37 µM)
CCn1cc(C(=O)O)c(=O)c2cc(F)c(N3CCNCC3)cc21 [NORFLOXACIN] | 2 mg/L (≈ 6.26 µM) | 2 mg/L (≈ 6.26 µM) | 1 mg/L (≈ 3.13 µM) | 8 mg/L (≈ 25.1 µM) | 4 mg/L (≈ 12.5 µM) | 4 mg/L (≈ 12.5 µM) | 4 mg/L (≈ 12.5 µM) | 2 mg/L (≈ 6.26 µM) | 2 mg/L (≈ 6.26 µM) | 4 mg/L (≈ 12.5 µM) | 4 mg/L (≈ 12.5 µM)
